In patent publication US20090142369A1, “Method for preventing skin-cellular injury by using green algae extract and cosmetic composition containing green algae extract” (priority 2007, published 2009):

Test system: fibroblasts
Assay: protective effects on UV-induced cytotoxicity (fibroblast survival rates)
Type: cell-based, human
Procedure: Green algae extracts (20 mg/ml and 10 mg/ml), Vitamin C, and Vitamin E treated fibroblasts are taken as subjects of the present experiment. The fibroblast survival rates are analyzed after 24, 48 and 72 hours of UV exposure and the results are quantified in the histogram.

| Compound | fibroblast survival rate, as % of non-UV-exposed control (Vitamin C 0.15 mM, after 24 hours of UV exposure) | fibroblast survival rate, as % of non-UV-exposed control (Vitamin C 0.15 mM, after 48 hours of UV exposure) [%] | fibroblast survival rate, as % of non-UV-exposed control (Vitamin C 0.15 mM, after 72 hours of UV exposure) [%] | fibroblast survival rate, as % of non-UV-exposed control (Vitamin E 25 μM, after 24 hours of UV exposure) | fibroblast survival rate, as % of non-UV-exposed control (Vitamin E 25 μM, after 48 hours of UV exposure) [%] | fibroblast survival rate, as % of non-UV-exposed control (Vitamin E 25 μM, after 72 hours of UV exposure) [%] |
| --- | --- | --- | --- | --- | --- | --- |
| O=C1O[C@H]([C@@H](O)CO)C(O)=C1O [Vitamin C] | about 53% | ~29 | ~22 | – | – | – |
| Vitamin E | – | – | – | about 49% | ~27 | ~23 |
